Data as given in ChEMBL document CHEMBL1201862, “PubChem BioAssay data set” (2004).
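Compound exposure: 48 hours, 5 concentrations, 96-well plates. Abbreviation: GI50, concentration required for 50% inhibition of growth.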 Activity calls are given as the source filed them. Rule as the data show it: active = GI50 up to about 1.1 µM and inactive = higher.

Key:
Test in all cases: NCI-60 cell line screen, 48 h
786-0 = tested on: 786-0
A498 = tested on: A498
A549 = tested on: A549
ACHN = tested on: ACHN
CAKI-1 = tested on: CAKI-1
CCRF-CEM = tested on: CCRF-CEM
COLO 205 = tested on: COLO 205
DU-145 = tested on: DU-145
EKVX = tested on: EKVX
HCC 2998 = tested on: HCC 2998
HCT-116 = tested on: HCT-116
HCT-15 = tested on: HCT-15
HL-60 = tested on: HL-60
HOP-62 = tested on: HOP-62
HOP-92 = tested on: HOP-92
HT-29 = tested on: HT-29
IGROV-1 = tested on: IGROV-1
K562 = tested on: K562
KM12 = tested on: KM12
LOX IMVI = tested on: LOX IMVI
M14 = tested on: M14
MCF7 = tested on: MCF7
MDA-MB-231 = tested on: MDA-MB-231
MDA-MB-435 = tested on: MDA-MB-435
MDA-N = tested on: MDA-N
MOLT-4 = tested on: MOLT-4
Malme-3M = tested on: Malme-3M
NCI-H226 = tested on: NCI-H226
NCI-H23 = tested on: NCI-H23
NCI-H460 = tested on: NCI-H460
NCI-H522 = tested on: NCI-H522
NCI/ADR-RES = tested on: NCI/ADR-RES
OVCAR-3 = tested on: OVCAR-3
OVCAR-4 = tested on: OVCAR-4
OVCAR-5 = tested on: OVCAR-5
OVCAR-8 = tested on: OVCAR-8
PC-3 = tested on: PC-3
RXF 393 = tested on: RXF 393
SF-268 = tested on: SF-268
SF-295 = tested on: SF-295
SF-539 = tested on: SF-539
SK-MEL-28 = tested on: SK-MEL-28
SK-MEL-2 = tested on: SK-MEL-2
SK-OV-3 = tested on: SK-OV-3
SN12C = tested on: SN12C
SNB-19 = tested on: SNB-19
SNB-75 = tested on: SNB-75
SR = tested on: SR
SW-620 = tested on: SW-620
T47D = tested on: T47D
TK-10 = tested on: TK-10
U-251 = tested on: U-251
UACC-257 = tested on: UACC-257
UACC-62 = tested on: UACC-62
UO-31 = tested on: UO-31
Hs-578T = tested on: Hs-578T
RPMI-8226 = tested on: RPMI-8226
SK-MEL-5 = tested on: SK-MEL-5

## COC(=O)C(NC(=O)CSc1nnc(COc2ccc(Cl)cc2)n1-c1ccccc1)C(C)C (stereo not given)
786-0
  GI50: 18.1 µM (inactive)
A498
  GI50: 21.2 µM (inactive)
A549
  GI50: 35.2 µM (inactive)
ACHN
  GI50: 39.3 µM (inactive)
CAKI-1
  GI50: 10.3 µM (inactive)
CCRF-CEM
  GI50: 23.4 µM (inactive)
COLO 205
  GI50: 23.4 µM (inactive)
DU-145
  GI50: 37.3 µM (inactive)
EKVX
  GI50: 23 µM (inactive)
HCC 2998
  GI50: 18.6 µM (inactive)
HCT-116
  GI50: 13 µM (inactive)
HCT-15
  GI50: 36.7 µM
HL-60
  GI50: 16.7 µM (inactive)
HOP-62
  GI50: 18.6 µM (inactive)
HOP-92
  GI50: 21.6 µM (inactive)
HT-29
  GI50: 17 µM (inactive)
IGROV-1
  GI50: 16.3 µM (inactive)
K562
  GI50: 53.8 µM (inactive)
KM12
  GI50: 19.1 µM (inactive)
LOX IMVI
  GI50: 26.2 µM (inactive)
M14
  GI50: 21.9 µM (inactive)
MCF7
  GI50: 40.7 µM (inactive)
MDA-MB-231
  GI50: 17.4 µM (inactive)
MDA-MB-435
  GI50: 19.9 µM (inactive)
MDA-N
  GI50: 16.2 µM (inactive)
MOLT-4
  GI50: 21.6 µM (inactive)
Malme-3M
  GI50: 16.5 µM (inactive)
NCI-H226
  GI50: 17 µM (inactive)
NCI-H23
  GI50: 25.4 µM (inactive)
NCI-H460
  GI50: 33.2 µM (inactive)
NCI-H522
  GI50: 10.6 µM (inactive)
NCI/ADR-RES
  GI50: 22.6 µM (inactive)
OVCAR-3
  GI50: 16.5 µM (inactive)
OVCAR-4
  GI50: 25.6 µM (inactive)
OVCAR-5
  GI50: 28.8 µM (inactive)
OVCAR-8
  GI50: 23.7 µM (inactive)
PC-3
  GI50: 21.7 µM (inactive)
RXF 393
  GI50: 24 µM (inactive)
SF-268
  GI50: 20.7 µM (inactive)
SF-295
  GI50: 22 µM (inactive)
SF-539
  GI50: 31.2 µM (inactive)
SK-MEL-28
  GI50: 21.5 µM (inactive)
SK-MEL-2
  GI50: 18.7 µM (inactive)
SK-OV-3
  GI50: 37.2 µM (inactive)
SN12C
  GI50: 18.6 µM (inactive)
SNB-19
  GI50: 29.3 µM (inactive)
SNB-75
  GI50: 14.6 µM (inactive)
SR
  GI50: 1.08 µM (active)
SW-620
  GI50: 56.4 µM (inactive)
T47D
  GI50: 20.8 µM (inactive)
TK-10
  GI50: 15.6 µM (inactive)
U-251
  GI50: 51.4 µM (inactive)
UACC-257
  GI50: 17.7 µM (inactive)
UACC-62
  GI50: 17.8 µM (inactive)
UO-31
  GI50: 26.7 µM (inactive)

## Cc1c(Cl)c(=O)oc2cc(OCC(O)COC(C)C)ccc12 (stereo not given)
786-0
  GI50: 39.9 µM (inactive)
A549
  GI50: 42.2 µM (inactive)
ACHN
  GI50: 44.1 µM (inactive)
CAKI-1
  GI50: > 10 µM (inactive)
CCRF-CEM
  GI50: 34.3 µM (inactive)
COLO 205
  GI50: 14 µM (inactive)
DU-145
  GI50: 99.5 µM (inactive)
EKVX
  GI50: 37.1 µM (inactive)
HCC 2998
  GI50: 16.8 µM (inactive)
HCT-116
  GI50: 43 µM (inactive)
HL-60
  GI50: 22.1 µM (inactive)
HOP-62
  GI50: 38.7 µM (inactive)
HOP-92
  GI50: 35 µM (inactive)
HT-29
  GI50: 40.2 µM (inactive)
Hs-578T
  GI50: 48.4 µM (inactive)
IGROV-1
  GI50: 65.8 µM (inactive)
K562
  GI50: 23.3 µM (inactive)
KM12
  GI50: 50.5 µM (inactive)
LOX IMVI
  GI50: 35 µM (inactive)
M14
  GI50: 32.2 µM (inactive)
MCF7
  GI50: 22 µM (inactive)
MDA-MB-435
  GI50: 60.3 µM (inactive)
MDA-N
  GI50: 48.1 µM (inactive)
MOLT-4
  GI50: 27.5 µM (inactive)
Malme-3M
  GI50: 20 µM (inactive)
NCI-H23
  GI50: > 100 µM (inactive)
NCI-H460
  GI50: 36.1 µM (inactive)
NCI-H522
  GI50: > 100 µM (inactive)
NCI/ADR-RES
  GI50: 75.7 µM (inactive)
OVCAR-3
  GI50: 97.5 µM (inactive)
OVCAR-4
  GI50: 38.9 µM (inactive)
OVCAR-5
  GI50: > 100 µM (inactive)
OVCAR-8
  GI50: 33.7 µM (inactive)
PC-3
  GI50: 43.5 µM (inactive)
RPMI-8226
  GI50: 50.6 µM (inactive)
SF-268
  GI50: 97.1 µM (inactive)
SF-295
  GI50: 64.4 µM (inactive)
SK-MEL-28
  GI50: > 100 µM (inactive)
SK-MEL-2
  GI50: 30.3 µM (inactive)
SK-MEL-5
  GI50: 19.8 µM (inactive)
SK-OV-3
  GI50: > 100 µM (inactive)
SNB-19
  GI50: > 100 µM (inactive)
SR
  GI50: 31.9 µM (inactive)
SW-620
  GI50: 34.4 µM (inactive)
T47D
  GI50: 69.7 µM (inactive)
TK-10
  GI50: 35.2 µM (inactive)
U-251
  GI50: 44.9 µM (inactive)
UACC-257
  GI50: 74 µM (inactive)
UACC-62
  GI50: 74.6 µM (inactive)
UO-31
  GI50: 40.3 µM (inactive)
